Measurements published in patent US20240124432A1, “HERBICIDAL COMPOUNDS” (SYNGENTA CROP PROTECTION AG, priority 2020, published 2024).

Columns and labels:
Format in all cases: in vivo
ELEIN = test: Post-emergence biological efficacy; details: 312 h, evaluated after 13 days, read-out: damage to plant (100=total damage to plant; 0=no damage to plant)
Outline: (§1)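 Pot-grown plants were raised 14 days in a glasshouse (24/19 °C day/night, 16 h light), then sprayed post-emergence with an aqueous dilution of a 50 g/l IF50 formulation stock in 0.2% Genapol XO80. They were kept at 24/18 °C, 15 h light, 50% humidity, and visually scored for damage after 13 days (0 = none, 100 = total).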

CHEAL = test: Post-emergence biological efficacy; details: Chenopodium album, 312 h, evaluated after 13 days, read-out: damage to plant (100=total damage to plant; 0=no damage to plant)
Outline: as §1

DIGSA = test: Post-emergence biological efficacy; details: Digitaria sanguinalis, 312 h, evaluated after 13 days, read-out: damage to plant (100=total damage to plant; 0=no damage to plant)
Outline: as §1

EPHHL [1] = test: Post-emergence biological efficacy; details: Euphorbia heterophylla, 312 h, evaluated after 13 days, read-out: damage to plant (100=total damage to plant; 0=no damage to plant)
Outline: as §1

ECHCG [2] = test: Post-emergence biological efficacy; details: Echinochloa crus-galli, 312 h, evaluated after 13 days, read-out: damage to plant (100=total damage to plant; 0=no damage to plant)
Outline: as §1

SETFA [3] = test: Post-emergence biological efficacy; details: Setaria faberi, 312 h, evaluated after 13 days, read-out: damage to plant (100=total damage to plant; 0=no damage to plant)
Outline: as §1

LOLPE [4] = test: Post-emergence biological efficacy; details: Lolium perenne, 312 h, evaluated after 13 days, read-out: damage to plant (100=total damage to plant; 0=no damage to plant)
Outline: as §1

AMAPA [5] = test: Post-emergence biological efficacy; details: Amaranthus palmeri, 312 h, evaluated after 13 days, read-out: damage to plant (100=total damage to plant; 0=no damage to plant)
Outline: as §1

IPOHE [6] = test: Post-emergence biological efficacy; details: Ipomoea hederacea, 312 h, evaluated after 13 days, read-out: damage to plant (100=total damage to plant; 0=no damage to plant)
Outline: as §1

EPHHL [7] = test: Pre-emergence biological efficacy; details: Euphorbia heterophylla, 312 h, evaluated after 13 days, read-out: damage to plant (100=total damage to plant; 0=no damage to plant)
Outline: (§2)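 Pre-emergence spray applied one day after sowing in standard soil, compound delivered from an IF50-based emulsifiable formulation diluted in 0.2% Genapol XO80. Plants then grew under glasshouse conditions for 13 days before damage was rated on a 0 (none) to 100 (total) scale.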

ECHCG [8] = test: Pre-emergence biological efficacy; details: Echinochloa crus-galli, 312 h, evaluated after 13 days, read-out: damage to plant (100=total damage to plant; 0=no damage to plant)
Outline: as §2

SETFA [9] = test: Pre-emergence biological efficacy; details: Setaria faberi, 312 h, evaluated after 13 days, read-out: damage to plant (100=total damage to plant; 0=no damage to plant)
Outline: as §2

LOLPE [10] = test: Pre-emergence biological efficacy; details: Lolium perenne, 312 h, evaluated after 13 days, read-out: damage to plant (100=total damage to plant; 0=no damage to plant)
Outline: as §2

AMAPA [11] = test: Pre-emergence biological efficacy; details: Amaranthus palmeri, 312 h, evaluated after 13 days, read-out: damage to plant (100=total damage to plant; 0=no damage to plant)
Outline: as §2

IPOHE [12] = test: Pre-emergence biological efficacy; details: Ipomoea hederacea, 312 h, evaluated after 13 days, read-out: damage to plant (100=total damage to plant; 0=no damage to plant)
Outline: as §2

Compound	pest or weed control at 250 g/ha (ELEIN) [%]	pest or weed control at 250 g/ha (CHEAL) [%]	pest or weed control at 250 g/ha (DIGSA) [%]	pest or weed control at 250 g/ha (EPHHL [1]) [%]	pest or weed control at 250 g/ha (ECHCG [2]) [%]	pest or weed control at 250 g/ha (SETFA [3]) [%]	pest or weed control at 250 g/ha (LOLPE [4]) [%]	pest or weed control at 250 g/ha (AMAPA [5]) [%]	pest or weed control at 250 g/ha (IPOHE [6]) [%]	pest or weed control at 250 g/ha (EPHHL [7]) [%]	pest or weed control at 250 g/ha (ECHCG [8]) [%]	pest or weed control at 250 g/ha (SETFA [9]) [%]	pest or weed control at 250 g/ha (LOLPE [10]) [%]	pest or weed control at 250 g/ha (AMAPA [11]) [%]	pest or weed control at 250 g/ha (IPOHE [12]) [%]
CCOC(=O)C1(C)CC(c2cc(-c3nc(C)cnc3C)c(F)cc2Cl)=NO1 (stereo not drawn) [Compound 1-787, Ethyl 3-[2-chloro-5-(3,6-dimethylpyrazin-2-yl)-4-fluoro-phenyl]-5-methyl-4H-isoxazole-5-carboxylate]	60	60	40	40	40	40	20	50	50	10	20	20	20	10	10
CCOC(=O)C1(C)CC(c2cc(-c3ncc(C(F)(F)F)nc3Cl)c(F)cc2Cl)=NO1 (stereo not drawn) [Compound 1-811, Ethyl 3-[2-chloro-5-[3-chloro-5-(trifluoromethyl)pyrazin-2-yl]-4-fluoro-phenyl]-5-methyl-4H-isoxazole-5-carboxylate]	90	60	40	80	50	100	70	80	70	100	70	50	10	100	0
CCOC(=O)C1(C)CC(c2cc(-c3nccnc3C(F)(F)F)c(F)cc2Cl)=NO1 (stereo not drawn) [Compound 1-823, Ethyl 3-[2-chloro-4-fluoro-5-[3-(trifluoromethyl)pyrazin-2-yl]phenyl]-5-methyl-4H-isoxazole-5-carboxylate]	30	60	50	60	70	60	10	60	60	40	20	20	20	0	90
CCOC(=O)C1(C)CC(c2cc(-c3cnc4c(c3)OC(F)(F)O4)ccc2C#N)=NO1 (stereo not drawn) [Compound 2-451, Ethyl 3-[2-cyano-5-(2,2-difluoro-[1,3]dioxolo[4,5-b]pyridin-6-yl)phenyl]-5-methyl-4H-isoxazole-5-carboxylate]	70	50	50	70	30	40	20	40	30	0	60	70	40	90	0
